In PubChem BioAssay (NCI):
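Five concentrations, 48 hours, 96-well plates. Here, GI50 denotes the concentration required for 50% inhibition of growth. At the TGI there is no net growth.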

Experiments:
Test in all cases: NCI-60 cell line screen, 48 h
HOP-92 NSCLC = tested on: HOP-92 NSCLC
HS 578T breast = tested on: HS 578T breast
LOX IMVI melanoma = tested on: LOX IMVI melanoma
NCI-H23 lung = tested on: NCI-H23 lung
NCI-H460 lung = tested on: NCI-H460 lung
NCI/ADR-RES ovarian = tested on: NCI/ADR-RES ovarian
SK-MEL-2 melanoma = tested on: SK-MEL-2 melanoma
SK-MEL-5 melanoma = tested on: SK-MEL-5 melanoma
SN12C renal = tested on: SN12C renal
T-47D breast = tested on: T-47D breast

Structure (SMILES)	TGI (HOP-92 NSCLC) [µM]	TGI (HS 578T breast) [µM]	TGI (LOX IMVI melanoma) [µM]	TGI (NCI-H23 lung) [µM]	TGI (NCI-H460 lung) [µM]	TGI (NCI/ADR-RES ovarian) [µM]	TGI (SK-MEL-2 melanoma) [µM]	TGI (SK-MEL-5 melanoma) [µM]	TGI (SN12C renal) [µM]	TGI (T-47D breast) [µM]	GI50 (HOP-92 NSCLC) [µM]	GI50 (NCI-H23 lung) [µM]	GI50 (NCI-H460 lung) [µM]	GI50 (NCI/ADR-RES ovarian) [µM]	GI50 (SK-MEL-2 melanoma) [µM]	GI50 (SK-MEL-5 melanoma) [µM]	GI50 (SN12C renal) [µM]	GI50 (T-47D breast) [µM]
CN1CCN(c2c(Cl)cc(Cl)c3[nH]c4ccccc4c(=O)c23)CC1	10.9	22.6	> 42.6	27	24.1	28.9	28.1	31.9	21.5	38.5	–	–	–	–	–	–	–	–
CC12N=NN(c3ccc([N+](=O)[O-])cc3)C1(O)c1ccccc1C2=O (stereo not drawn)	–	–	> 100	> 100	> 100	–	–	> 100	> 100	–	–	–	–	–	–	–	–	–
Clc1ccc(N2N=C(c3cccc(Nc4ccncc4)c3)CC2c2ccc3c(c2)OCO3)cc1 (stereo not drawn)	2.86	–	–	3.37	3.29	3.17	4.59	3.17	3.25	5.07	1.24	1.74	1.77	1.64	2.09	1.76	1.71	2.13
CC(=O)Nc1ccc(C(=O)NN2C(=O)C(Cl)C2c2ccc([N+](=O)[O-])cc2)cc1 (stereo not drawn)	> 100	–	> 100	> 100	> 100	–	> 100	> 100	> 100	–	–	–	–	–	–	–	–	–
CCCCc1cc2c(C)cc(=O)oc2c(O)c1O	59.6	59.5	61	> 100	> 100	56.4	> 100	46.5	> 100	82.3	–	–	–	–	–	–	–	–
COC1OC(Cc2nnc(C)o2)C(OCc2ccccc2)C(OCc2ccccc2)C1OCc1ccccc1 (stereo not drawn)	> 100	> 100	40.3	56	87	70	29.2	30	85.3	> 100	–	–	–	–	–	–	–	–
CC(=O)/C(=C/n1c(=S)[nH]c2ccccc21)C(=O)Nc1ccccc1C	> 100	–	> 100	> 100	> 100	> 100	> 100	> 100	> 100	> 100	–	–	–	–	–	–	–	–
CC[N+](C)(CC)CCC(O)(c1ccccc1)c1ccccc1	–	> 100	> 100	> 100	> 100	> 100	> 100	> 100	> 100	> 100	–	–	–	–	–	–	–	–
CN(C)c1nc(N(C)C)nc(N(C)C23CC4CC(CC(C4)C2)C3)n1	55.8	–	–	34.1	> 100	> 100	55.5	–	–	> 100	–	–	–	–	–	–	–	–
Nc1cccc2c1C(=O)c1cccc(N)c1C2=O	> 100	–	> 100	> 100	> 100	–	> 100	> 100	> 100	–	–	–	–	–	–	–	–	–
Cc1nc2c3c(ncn2n1)Oc1c(c(-c2ccccc2)nn1-c1ccccc1)C3c1ccc(Cl)cc1 (stereo not drawn)	> 100	74.1	> 100	> 100	> 100	> 100	> 100	–	> 100	> 100	–	–	–	–	–	–	–	–
